From patent US11584744B2 (UNIVERSITY OF WASHINGTON, priority 2017, dated 2023)
≈ marks a conversion by molar mass, not a printed value. Read-outs that look alike come from different tables or passages of the source.

Key:
C. parvum = C. parvum growth inhibition; assay type: cell-based, Cryptosporidium parvum; details: read-out: (J) C. parvum EC50
[1] = test system: S. aureus MSSA (ATCC 29213); experiment: MIC susceptibility testing; assay type: cell-based, Staphylococcus aureus; details: S. aureus ATCC 29213; for MIC: Staphylococcus aureus, read-out: (F) S. aureus (ATCC 29213) MIC
[2] = test system: S. aureus MRSA (ATCC 33591); experiment: MIC susceptibility testing; assay type: cell-based, Staphylococcus aureus; details: Staphylococcus aureus, MRSA ATCC33591; read-out: (G) MRSA (ATCC33591) MIC
Summary of the method: (§1)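 CLSI broth microdilution in triplicate, 5×10^5 CFU/mL final, ≤0.5% DMSO; MHB for S. aureus, CA-MHB for E. coli and E. faecium, CA-MHB plus 3% laked horse blood for S. pyogenes (5% CO2).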

MetRS (T. brucei) = biological target: T1, MetRS (T. brucei) (Trypanosoma brucei brucei, UniProt Q38C91); experiment: MetRS (T. brucei) enzyme inhibition; assay type: biochemical
T1 sequence (Q38C91 1-773): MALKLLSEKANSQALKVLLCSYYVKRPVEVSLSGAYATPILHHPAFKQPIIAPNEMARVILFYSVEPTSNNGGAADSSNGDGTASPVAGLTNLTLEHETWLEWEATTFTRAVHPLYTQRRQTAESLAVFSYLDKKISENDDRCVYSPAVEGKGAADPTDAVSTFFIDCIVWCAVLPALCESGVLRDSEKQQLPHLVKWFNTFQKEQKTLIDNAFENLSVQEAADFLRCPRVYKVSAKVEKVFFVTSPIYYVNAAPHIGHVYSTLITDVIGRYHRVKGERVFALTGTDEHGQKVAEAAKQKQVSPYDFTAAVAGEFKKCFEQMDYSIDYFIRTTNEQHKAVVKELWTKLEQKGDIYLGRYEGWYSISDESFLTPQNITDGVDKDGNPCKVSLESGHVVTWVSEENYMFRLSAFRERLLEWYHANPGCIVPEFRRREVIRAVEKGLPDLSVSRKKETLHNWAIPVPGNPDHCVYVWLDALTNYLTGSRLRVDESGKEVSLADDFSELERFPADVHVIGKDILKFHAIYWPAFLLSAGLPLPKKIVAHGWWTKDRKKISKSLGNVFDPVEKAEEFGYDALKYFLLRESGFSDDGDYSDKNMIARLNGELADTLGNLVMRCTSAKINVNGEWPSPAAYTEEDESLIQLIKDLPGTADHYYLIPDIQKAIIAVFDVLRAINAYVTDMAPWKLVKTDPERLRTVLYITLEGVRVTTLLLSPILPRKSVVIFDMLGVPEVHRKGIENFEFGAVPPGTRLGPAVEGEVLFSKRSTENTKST

MetRS (C. parvum) = MetRS (C. parvum) (Cryptosporidium parvum, UniProt Q5CVN0); experiment: MetRS (C. parvum) enzyme inhibition; assay type: biochemical; details: read-out: (C) MetRS (C. parvum) IC50
Sequence of MetRS (C. parvum) (Q5CVN0 entry or part of it): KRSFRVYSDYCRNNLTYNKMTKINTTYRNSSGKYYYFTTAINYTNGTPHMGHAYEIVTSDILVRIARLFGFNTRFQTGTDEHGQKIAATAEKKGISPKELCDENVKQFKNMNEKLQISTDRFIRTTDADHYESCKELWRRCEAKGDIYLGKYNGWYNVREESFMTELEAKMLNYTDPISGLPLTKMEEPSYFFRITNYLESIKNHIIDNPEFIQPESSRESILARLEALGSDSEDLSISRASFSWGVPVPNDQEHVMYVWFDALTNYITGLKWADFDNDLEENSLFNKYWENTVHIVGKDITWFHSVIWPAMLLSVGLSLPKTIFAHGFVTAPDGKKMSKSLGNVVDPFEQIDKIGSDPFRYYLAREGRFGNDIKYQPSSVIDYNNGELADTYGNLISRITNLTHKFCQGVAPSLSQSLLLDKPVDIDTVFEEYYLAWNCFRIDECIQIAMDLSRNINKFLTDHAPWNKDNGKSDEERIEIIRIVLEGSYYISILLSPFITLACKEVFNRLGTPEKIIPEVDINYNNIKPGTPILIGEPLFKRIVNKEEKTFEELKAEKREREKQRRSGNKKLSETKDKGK

[3] = biological target: recombinant S. aureus MetRS enzyme (Staphylococcus aureus, UniProt A0A0H2XID2); experiment: Inhibition of SaMetRS, ATP depletion assay; assay type: biochemical; details: read-out: (B) MetRS (S. aureus) IC50
Sequence of recombinant S. aureus MetRS enzyme (A0A0H2XID2 2-657): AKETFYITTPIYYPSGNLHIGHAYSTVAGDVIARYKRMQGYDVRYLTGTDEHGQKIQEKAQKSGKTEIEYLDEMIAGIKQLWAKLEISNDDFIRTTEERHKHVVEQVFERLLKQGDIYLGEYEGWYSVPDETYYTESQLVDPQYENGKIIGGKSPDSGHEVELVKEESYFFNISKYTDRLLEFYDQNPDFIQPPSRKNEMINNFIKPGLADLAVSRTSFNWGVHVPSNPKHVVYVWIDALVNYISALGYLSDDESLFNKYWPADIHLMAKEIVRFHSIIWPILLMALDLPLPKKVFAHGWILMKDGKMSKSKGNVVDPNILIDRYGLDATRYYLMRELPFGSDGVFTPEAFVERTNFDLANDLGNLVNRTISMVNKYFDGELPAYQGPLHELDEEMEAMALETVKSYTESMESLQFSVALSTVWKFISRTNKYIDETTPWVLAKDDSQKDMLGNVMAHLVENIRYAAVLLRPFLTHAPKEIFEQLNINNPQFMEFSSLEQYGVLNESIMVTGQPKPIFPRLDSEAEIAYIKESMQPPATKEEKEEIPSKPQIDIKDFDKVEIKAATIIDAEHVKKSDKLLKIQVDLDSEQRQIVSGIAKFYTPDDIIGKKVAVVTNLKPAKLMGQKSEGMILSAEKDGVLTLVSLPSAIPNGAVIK
Experimental: Production of recombinant S. aureus MetRSs. The SaMetRS gene (UniProtKB—A0A0H2XID2) was PCR amplified (Sense 5′-[…]-3′ (SEQ ID NO: 1) and Antisense 5′-[…]-3′ (SEQ ID NO:2)) from genomic DNA isolated from S. aureus (ATCC 29213) cultures. The PCR product was then cloned into the AVA0421 plasmid and sequence verified. The expression of recombinant protein was performed as previously described. The N-terminal 6-His fusion proteins were purified by nickel affinity chromatography followed by size exclusion gel chromatography (Superdex 75 26/60; GE Biosciences, Piscataway, N.J.).
Enzyme assays. Inhibition of SaMetRS was measured using the ATP depletion assay as previously described with some modifications. Compounds were pre-incubated for 15 minutes at room temperature in a 96-well plate with 400 μg/mL bulk E. coli tRNA, 25 nM SaMetRS, 0.1 U/mL pyrophosphatase, 0.2 mM spermine, 0.1 mg/mL bovine serum albumin, 2.5 mM dithiothreitol, 25 mM HEPES-KOH pH 7.9, 10 mM MgCl2, 50 mM KCl, and 2% DMSO. Reagents were purchased from Sigma-Aldrich or Roche. The reaction was started with the addition of 150 nM ATP and 20 μM L-methionine and after 120 minute incubation was stopped by the addition of an equal volume (50 μL) of Kinase-Glo® (Promega). Percent inhibition=100×(test compound−AVG low control)/(AVG high control−AVG low control) where the low control is all reagents except the compound and the high control is all reagents except the compounds and L-methionine. IC50 values were calculated by non-linear regression, sigmoidal-dose response, in Prism 3.0.

T. cruzi = T. cruzi growth inhibition; assay type: cell-based, Trypanosoma cruzi; details: read-out: (E) T. cruzi EC50
T. brucei = T. brucei growth inhibition; assay type: cell-based, Trypanosoma brucei; details: read-out: (D) T. brucei EC50
[4] = test system: E. faecium VRE (ATCC 51559); experiment: MIC susceptibility testing; assay type: cell-based, Enterococcus faecium; details: Enterococcus faecium, E. faecium ATCC 51559; read-out: (I) E. faecium (ATCC 51559) MIC
Summary of the method: as §1

COCCn1c(Cc2ccc(Cl)cc2Cl)cn(Cc2nc3ccc(F)nc3[nH]2)c1=O [Compound 2077, 4-[(2,4-dichlorophenyl)methyl]-1-({5-fluoro-1H-imidazo[4,5-b]pyridin-2-yl}methyl)-3-(2-methoxyethyl)-2,3-dihydro-1H-imidazol-2-one]
EC50 (C. parvum; Cryptosporidium parvum): 475 nM | EC50 (C. parvum): 283 nM | MIC [1]: 0.818 µg/mL (≈ 1.82 µM) | MIC [2]: > 2.5 µg/mL | IC50 (MetRS (T. brucei)): < 40 nM | IC50 (MetRS (C. parvum)): < 40 nM | IC50 [3]: < 25 nM | EC50 (T. cruzi; Trypanosoma cruzi): 215 nM

CCCn1c(Cc2ccc(Cl)cc2Cl)cn(Cc2nc3ccc(Cl)nc3[nH]2)c1=O [Compound 2079, 1-({5-chloro-1H-imidazo[4,5-b]pyridin-2-yl}methyl)-4-[(2,4-dichlorophenyl)-methyl]-3-propyl-2,3-dihydro-1H-imidazol-2-one]
(F) S. aureus (ATCC 29213) MIC [1]: 0.0391 µg/mL | MIC [1]: 0.044 µg/mL (≈ 0.0976 µM) | MIC [2]: > 2.5 µg/mL | IC50 (MetRS (T. brucei)): < 40 nM | EC50 (T. brucei; Trypanosoma brucei): < 0.91 nM | EC50 (T. brucei): 1.79 nM | IC50 (MetRS (C. parvum)): < 40 nM | IC50 [3]: < 25 nM | EC50 (T. cruzi; Trypanosoma cruzi): 26 nM | EC50 (T. cruzi): 22.5 nM

O=c1n(Cc2nc3ccc(F)nc3[nH]2)cc(Cc2ccc(Cl)cc2Cl)n1CC1CCOCC1 [Compound 2087, 4-[(2,4-dichlorophenyl)methyl]-1-({5-fluoro-1H-imidazo[4,5-b]pyridin-2-yl}methyl)-3-[(oxan-4-yl)methyl]-2,3-dihydro-1H-imidazol-2-one]
MIC [1]: 0.254 µg/mL (≈ 0.518 µM) | MIC [2]: 1.67 µg/mL (≈ 3.41 µM) | IC50 (MetRS (T. brucei)): < 40 nM | IC50 (MetRS (C. parvum)): < 40 nM | IC50 [3]: < 25 nM | EC50 (T. cruzi; Trypanosoma cruzi): 359 nM

O=c1n(Cc2nc3nc(F)ccc3[nH]2)cc(Cc2ccc(Cl)cc2Cl)n1C1CCOCC1 [Compound 2088, 4-[(2,4-dichlorophenyl)methyl]-1-({5-fluoro-1H-imidazo[4,5-b]pyridin-2-yl}methyl)-3-(oxan-4-yl)-2,3-dihydro-1H-imidazol-2-one]
MIC [1]: 0.424 µg/mL (≈ 0.89 µM) | MIC [2]: 1.5 µg/mL (≈ 3.15 µM) | IC50 (MetRS (T. brucei)): < 40 nM | IC50 (MetRS (C. parvum)): < 40 nM | IC50 [3]: < 25 nM | EC50 (T. cruzi; Trypanosoma cruzi): 263 nM

CCn1c(Cc2ccc(Cl)cc2Cl)cn(Cc2nc3ccc(Br)nc3[nH]2)c1=O [Compound 2091, 1-({5-bromo-1H-imidazo[4,5-b]pyridin-2-yl}methyl)-4-[(2,4-dichlorophenyl)-methyl]-3-ethyl-2,3-dihydro-1H-imidazol-2-one]
EC50 (C. parvum; Cryptosporidium parvum): 598 nM | MIC [1]: 0.199 µg/mL (≈ 0.414 µM) | MIC [2]: > 2.5 µg/mL | IC50 (MetRS (T. brucei)): < 40 nM | EC50 (T. brucei; Trypanosoma brucei): 2.8 nM | IC50 (MetRS (C. parvum)): < 40 nM | IC50 [3]: < 25 nM | EC50 (T. cruzi; Trypanosoma cruzi): 59 nM | EC50 (T. cruzi): 40.6 nM

CS(=O)(=O)c1nc(Cc2ccc(Cl)cc2Cl)cn1Cc1nc2ccc(F)nc2[nH]1 [Compound 2105, 4-[(2,4-dichlorophenyl)methyl]-1-({5-fluoro-1H-imidazo[4,5-b]pyridin-2-yl}methyl)-2-methanesulfonyl-1H-imidazole]
MIC [1]: 2.15 µg/mL (≈ 4.73 µM) | IC50 (MetRS (T. brucei)): < 40 nM | EC50 (T. brucei; Trypanosoma brucei): 71.5 nM | IC50 (MetRS (C. parvum)): 109 nM | IC50 [3]: < 25 nM | EC50 (T. cruzi; Trypanosoma cruzi): 867 nM

CS(=O)(=O)c1nc(Cc2ccc(Cl)cc2Cl)cn1Cc1nc2nc(Cl)ccc2[nH]1 [Compound 2111, 1-({5-chloro-1H-imidazo[4,5-b]pyridin-2-yl}methyl)-4-[(2,4-dichlorophenyl)methyl]-2-methanesulfonyl-1H-imidazole]
MIC [1]: 1.25 µg/mL (≈ 2.66 µM) | IC50 (MetRS (T. brucei)): < 40 nM | EC50 (T. brucei; Trypanosoma brucei): 54.6 nM | IC50 (MetRS (C. parvum)): 146 nM | IC50 [3]: < 25 nM | EC50 (T. cruzi; Trypanosoma cruzi): 445 nM

COc1cc(-c2cccc3nc(Cc4nc5nc(F)ccc5[nH]4)cn23)c(Cl)cc1Cl [Compound 2129, 5-(2,4-dichloro-5-methoxyphenyl)-2-({5-fluoro-1H-imidazo[4,5-b]pyridin-2-yl}methyl)imidazo[1,2-a]pyridine]
IC50 (MetRS (T. brucei)): < 40 nM | IC50 (MetRS (C. parvum)): < 40 nM | IC50 [3]: < 25 nM | EC50 (T. cruzi; Trypanosoma cruzi): 102 nM | EC50 (T. cruzi): 82 nM

Fc1ccc2[nH]c(Cc3cn4c(-c5ccc(Cl)cc5Cl)cccc4n3)nc2n1 [Compound 2135, 5-(2,4-dichlorophenyl)-2-({5-fluoro-1H-imidazo[4,5-b]pyridin-2-yl}methyl)imidazo[1,2-a]pyridine]
MIC [1]: 0.592 µg/mL (≈ 1.44 µM) | IC50 (MetRS (T. brucei)): < 40 nM | EC50 (T. brucei; Trypanosoma brucei): 99.3 nM | IC50 (MetRS (C. parvum)): 56.7 nM | MIC [4]: 1.33 µg/mL (≈ 3.23 µM) | IC50 [3]: < 25 nM | EC50 (T. cruzi; Trypanosoma cruzi): 2160 nM

O=c1n(Cc2nc3nc(F)ccc3[nH]2)cc(Cc2ccc(Cl)cc2Cl)n1CC(F)F [Compound 2139, 4-[(2,4-dichlorophenyl)methyl]-3-(2,2-difluoroethyl)-1-({5-fluoro-1H-imidazo[4,5-b]pyridin-2-yl}methyl)-2,3-dihydro-1H-imidazol-2-one]
EC50 (C. parvum; Cryptosporidium parvum): 193 nM | MIC [1]: 0.0776 µg/mL (≈ 0.17 µM) | MIC [2]: 0.307 µg/mL (≈ 0.673 µM) | IC50 (MetRS (T. brucei)): < 40 nM | EC50 (T. brucei; Trypanosoma brucei): 3.21 nM | IC50 (MetRS (C. parvum)): < 40 nM | IC50 [3]: < 25 nM

COc1cc(Cl)c(-c2cccc3nc(Cc4nc5nc(F)ccc5[nH]4)cn23)cc1OC [Compound 2145, 5-(2-chloro-4,5-dimethoxyphenyl)-2-({5-fluoro-1H-imidazo[4,5-b]pyridin-2-yl}methyl)imidazo[1,2-a]pyridine]
EC50 (C. parvum; Cryptosporidium parvum): > 2000 nM | IC50 (MetRS (T. brucei)): < 40 nM | IC50 (MetRS (C. parvum)): 74.7 nM | IC50 [3]: < 25 nM | EC50 (T. cruzi; Trypanosoma cruzi): 66.7 nM | EC50 (T. cruzi): 129 nM

COc1ccc(-c2cccc3nc(Cc4nc5nc(C(F)(F)F)ccc5[nH]4)cn23)c(Cl)c1 [Compound 2166, 5-(2-chloro-4-methoxyphenyl)-2-{[5-(trifluoromethyl)-1H-imidazo[4,5-b]pyridin-2-yl]methyl}imidazo[1,2-a]pyridine]
MIC [1]: > 1.25 µg/mL | IC50 (MetRS (T. brucei)): < 40 nM | EC50 (T. brucei; Trypanosoma brucei): > 200 nM | IC50 (MetRS (C. parvum)): > 1000 nM | MIC [4]: > 2.5 µg/mL | IC50 [3]: 177 nM | EC50 (T. cruzi; Trypanosoma cruzi): 596 nM

COc1ccc(-c2cn(Cc3ccccc3)c3c2CN(Cc2nc4nc(Cl)ccc4[nH]2)CC3)c(Cl)c1 [Compound 2176, 2-((1-benzyl-3-(2-chloro-4-methoxyphenyl)-6,7-dihydro-1H-pyrrolo[3,2-c]pyridin-5(4H)-yl)methyl)-5-chloro-1H-imidazo[4,5-b]pyridine]
MIC [1]: > 0.5 µg/mL | MIC [2]: > 2.5 µg/mL | IC50 (MetRS (T. brucei)): < 40 nM | EC50 (T. brucei; Trypanosoma brucei): 40.6 nM | IC50 (MetRS (C. parvum)): 80 nM | IC50 [3]: < 25 nM | EC50 (T. cruzi; Trypanosoma cruzi): 283 nM

COc1ccc(-c2cnc(N3CCN(C(C)=O)CC3)c3nc(Cc4nc5nc(Cl)ccc5[nH]4)cn23)c(Cl)c1 [Compound 2185, 1-{4-[2-({5-chloro-1H-imidazo[4,5-b]pyridin-2-yl}methyl)-5-(2-chloro-4-methoxyphenyl)imidazo[1,2-a]pyrazin-8-yl]piperazin-1-yl}ethan-1-one]
EC50 (C. parvum; Cryptosporidium parvum): 243 nM | MIC [1]: 0.358 µg/mL (≈ 0.649 µM) | MIC [2]: 1.2 µg/mL (≈ 2.18 µM) | IC50 (MetRS (T. brucei)): < 40 nM | IC50 (MetRS (C. parvum)): < 40 nM | IC50 [3]: < 25 nM | EC50 (T. cruzi; Trypanosoma cruzi): 71.6 nM | EC50 (T. cruzi): 90.9 nM
